EP1153612A1, “ANTICANCER AGENT POTENTIATORS” (Tsuruo, Takashi, priority 1999, dated 2000)

What was measured:
[1] = system: topoisomerase I; assay: Amount of expression of topoisomerase I in whole cell extract by western blotting; type: cell-based, human; conditions: ordinary and glucose starvation condition; 2.5, 5, and 10 µM; FIG. 17(a)
Procedure: The cell culture condition for both M phase-synchronized culture method and culture under the glucose starvation condition was as described in Example 1. M phase-synchronized cells were cultured in the culture medium, to which lactacystin of the final concentration 10 µM was added, or the culture medium, to which this was not added, as the proteasome inhibiting agent under the ordinary condition and the glucose starvation condition, respectively, for 13 hours. […] In order to examine sensitivity of cells against the topoisomerase I inhibiting agent, camptothecin (Yakult made), the drug was added to the culture medium to continue further culturing for 4 hours. Sensitivity of cells was measured by applying the colony formation method described in Example 1. On the other hand, the amount of expression of topoisomerase I that is the target molecule of camptothecin was measured by preparing the whole cell extract solution as described in Example 2 followed by the western blotting method. For reference, in measuring the amount of expression of topoisomerase I, regarding the proteasome inhibiting agents, clasto-lactacystin β lactone (Boston Biochem made), which is an activated form of lactacystin, was used in the final concentration of 2.5, 5, and 10 µM. Meanwhile, as the antibody against human topoisomerase I, a mouse monoclonal antibody established by Tsuruo et al. was used.

[2] = system: topoisomerase IIα; assay: Amount of expression of topoisomerase IIα in whole cell extract by western blotting; type: cell-based, human; conditions: glucose starvation condition; 2.5, 5, and 10 µM; FIG. 17(b)
Excerpt: Topoisomerase II inhibiting anticancer drug stabilizes a complex (cleavable complex) consisting of the DNA and topoisomerase IIα occurring in a catalytic reaction process of topoisomerase IIα to cause DNA damage. Therefore, cell-killing effect of the topoisomerase II-inhibiting anticancer drug depends on the amount of intracellular expression of topoisomerase IIα essential for formation of the cleavable complex. Then, the amount of expression of topoisomerase IIα in the cultured cancer cell under the glucose starvation and hypoxia environment that are found in the solid cancer and the effect of the proteasome inhibiting agent to the amount of expression were examined.
The culture condition of cells is same as that described in Example 1 including the M phase synchronous culture method and culture under the glucose starvation condition. Culture under hypoxia condition, that is found in the solid cancer, similar to glucose starvation was carried out using the culture medium (that prepared by adding 5% FBS to RPMI1640 culture medium) under the ordinary condition in a Gaspack 100 anaerobic system (Becton Dickinson made). Culture under the glucose starvation condition and hypoxia condition was carried out for 14 hours .
With the purpose to prepare a whole cell extract solution, cells culture under the above described condition were washed with an ice-cooled PBS twice and then, cells were removed from the culture dish by using a cell scraper (Sumitomo Bakelite made) for collection. Cells collected were precipitated by centrifugation and then, dissolved in an SDS sample buffer to collect as the extract solution from all cells. For reference, the composition of the SDS sample buffer was 10% v/v, glycerol, 5% 2-mercaptoethanol, 2% SDS (sodium lauryl sulfate), and 62.5 mM tris-hydrochloric acid (pH 6.8).
The amount of topoisomerase IIα in the extract solution from all cells was measured by the western blotting method. The extract solution from all cells containing a total protein quantity of 30 µg was put on an SDS polyacrylamide gel (4-20 Multigel: Daiichi Pure Chemicals K.K. made) and subjected to electrophoresis in an electrophoresis buffer (25 mM tris, 192 mM glycine, and 0.1% SDS) in a 40 mA constant current for 1 hour. Subsequently, blotting was carried out in 4°C blotting buffer (25 mM tris, 192 mM glycine, and 20% methanol) in a 50 V constant voltage for 12 hours to transfer a protein separated in the SDS polyacrylamide gel to a nitrocellulose membrane. This nitrocellulose membrane was soaked in a blocking buffer (0.1% Tween 20, 4% skim milk-added PBS) for 1 hour to carry out blocking. The nitrocellulose membrane blocked was soaked in a solution, that was prepared by adding anti-topoisomerase IIα antibody (Cambridge Research Biochemicals Corp. made) of the final concentration 1 µg/ml as the primary antibody to the blocking buffer solution, for 1 hour. The nitrocellulose membrane was washed with the blocking buffer three times (5 minutes once), and then, soaked in the solution, in which a 1/1000 volume of an antimouse antibody (Amersham Pharmacia Biotech made) labeled with horse radish peroxidase as a secondary antibody had been added to the blocking buffer, for 1 hour. The nitrocellulose membrane was washed with the blocking buffer three times (5 minutes once), and then, washed with the PBS, to which 0.1% Tween 20 was added, three times (5 minutes once). The nitrocellulose membrane after completion of antibody reaction and washing was treated with the ECL reagent (Amersham Pharmacia Biotech made) after a handling manual and a topoisomerase IIα-specific signal was detected on an X-OMAT™AR film (Kodakmade). For reference, steps after blotting was carried out in a room temperature. […]
The cell culture condition for both M phase-synchronized culture method and culture under the glucose starvation condition was as described in Example 1. […]

[3] = system: human colon adenocarcinoma cell HT-29; assay: Sensitivity of cells to anticancer drug by colony formation method (M phase-synchronized cells, with or without proteasome inhibiting agent); type: cell-based; conditions: etoposide 5, 10, and 15 µg/ml, 1 hour, FIG. 1
Procedure: In the glucose starvation environment found in the solid cancer, the effect of combined use of the proteasome inhibitor in a human colon adenocarcinoma cell HT-29 with the anticancer drug targeting topoisomerase II was tested.
Concerning culture media, for a culture condition in a normal state, RPMI 1640 medium (Nissui Pharmaceutical Co.-made) to which a 5% FBS (fetal bovine serum) was added and for the culture condition in the glucose starvation state symbolically found in the solid cancer, RPMI 1640 medium (Lifetech Oriental-made), lacking glucose, in which the 5% FBS was added were used, respectively. Culture was carried out using a CO2 incubator (Tabai Espec-made) under conditions of 5% CO2/95% air and humidity 100%.
In order to test sensitivity to the anticancer drug, the cell cycle synchronization culture methodwas employed. Nocodazol (Sigma made) was used to synchronize the cell cycle, cells in a logarithmic proliferation phase were treated with 40 ng/ml Nocodazol for 9 hours, and cells accumulated in cell division phase (Mpahse) were collected by gentle pipetting. M phase-synchronized cells collected through these steps were washed with PBS (phosphate buffered saline) followed by inoculation of 1×10^5 cells per well of 12 well-culture plate.
M phase-synchronized cells were cultured under the normal condition and the glucose starvation condition to conduct treatments with the proteasome inhibiting agent and the anticancer drug as follows. For cells under the glucose starvation condition, the culture medium, to which the proteasome inhibiting agent and the protease inhibiting agent not inhibiting proteasome were added as the control group, and the culture medium, to which no inhibiting agent has been added, was used. For cells under the normal condition, the culture medium, to which each inhibiting agent was not added, was used. After inoculation of cells, culture was carried out for 13 hours in each culture medium. […]
Sensitivity of cells to the anticancer drug was measured using the colony formation method. As described above, cells treated with the proteasome inhibiting agent and the anticancer drug were washed with PBS followed by soaking in trypsin (Lifetech Oriental made) solution and removed from a culture dish to suspend in an ordinary culture medium. These cells were inoculated again in 500 to 5000 cells for a 10 cm culture dish and cultured for 10 to 12 days to form a colony. The colony formed was fixed by 10% formaldehyde solution and stainedwith 0.01% crystal violet (Wako Pure Chemicals made) solution. Number of colony was counted and a Cell survival rate was calculated assuming that the number of colonies untreated with the anticancer drug is 1.
For reference, the proteasome inhibiting agent and the protease inhibiting agent not inhibiting proteasome used as described above were as follows. • (1) Proteasome inhibiting agent • . […] MG115 (carbobenzoxy-L-Leucyl-L-Leucyl-L-Norvalinal): final concentration 2.5 µM (Peptide Institute Inc. made) • . MG132 (carbobenzoxy-L-Leucyl-L-Leucyl-Leucinal) : final concentration 2.5 µM (Peptide Institute Inc. made) • . Lactacystin, final concentration 10 µM (Kindly supplied from The Kitasato Institute made) • (2) Protease inhibiting agent not inhibiting proteasome • . E64, final concentration 25 µM (Peptide Institute Inc. made) • . ZLLal (carbobenzoxy-L-Leucyl-L-Leucinal): final concentration 25 µM (Peptide Institute Inc. made)
The cell culture condition for both M phase-synchronized culture method and culture under the glucose starvation condition was as described in Example 1. M phase-synchronized cells were cultured in the culture medium, to which lactacystin of the final concentration 10 µM was added, or the culture medium, to which this was not added, as the proteasome inhibiting agent under the ordinary condition and the glucose starvation condition, respectively, for 13 hours. […]

[4] = system: human colon cancer cell HT29; assay: Anticancer therapy in human cancer cell-transplanted nude mouse model (size of tumor lump); type: in vivo, nude mouse BALB/cAnNCrj-nu/nu; conditions: Example 5; intraperitoneally three times every 4 days; etoposide 33 mg/kg, lactacystin 40 mg/kg; in combined use lactacystin 5 hours before etoposide; FIG. 11
Excerpt: A human colon cancer cell HT29 was transplanted subcutaneously to a nude mouse to examine a therapeutic effect of combined use of lactacystin, the proteasome inhibiting agent, with etoposide, the anticancer drug targeting topoisomerase II.
As an experimental animal, the nude mouse BALB/cAnNCrj-nu/nu of 8-week old female (Charles River Laboratories product) was used. In order to form a tumor lump in the nude mouse, 1×10^7 HT29 cells was subcutaneously transplanted. After 8 to 10 days of transplanting, the tumor lump of HT29 cells grew to […] and at this point, the therapy was started. […]
The therapy was conducted by dividing the HT29 tumor-transplanted mice into 4 groups to assign 4 animals to 1 group as follows by administering intraperitoneally three times every 4 days: (1) control group untreated with saline, (2) etoposide 33 mg/kg, (3) lactacystin 40 mg/kg, (4) lactacystin 40 mg/kg and etoposide 33 mg/kg. […] Since start of the therapy, a size of the tumor lump was measured to measure effect of the therapy by administration of drugs once every 4 days. […]
The effect of therapy by simultaneous administration of the proteasome inhibiting agent, lactacystin, and the topoisomerase II-targeting anticancer, doxorubicin was examined. […] After start of treatment, once every 4 to 5 days, the size of the tumor lump was measured to measure the effect of treatment by drug administration.

Structure (SMILES) | amount of expression of topoisomerase I [1] | amount of expression of topoisomerase IIα [2] | Cell survival (colony formation) with etoposide ([3]; glucose starvation condition) | Cell survival (colony formation) with etoposide ([3]; ordinary culture condition) | suppression of tumor proliferation (size of the tumor lump) [4]
CC(C)[C@H](O)[C@@]12NC(=O)[C@H](C)[C@@H]1OC2=O [activated type of lactacystin, clasto-lactacystin β lactone] | does not change | the lowering of expression is perfectly inhibited |  |  | 
COc1cc([C@@H]2c3cc4c(cc3[C@@H](O[C@@H]3O[C@@H]5CO[C@@H](C)O[C@H]5[C@H](O)[C@H]3O)[C@H]3COC(=O)[C@H]23)OCO4)cc(OC)c1O [etoposide] |  |  | cells showed resistance against etoposide to survive | almost all HT29 cells died | less suppression of tumor proliferation
